Test results published in ChEMBL document CHEMBL1133339, “Leukotriene B4 photoaffinity probes: design, synthesis and evaluation of new arylazide-1,3-disubstituted cyclohexanes” (Bioorg Med Chem Lett, 2000).

Biological target: Leukotriene B4 receptor 1 (Homo sapiens, UniProt Q15722)
Test: Compound was tested for inhibition against binding of radioligand [3H]LTB4 to Leukotriene B4 receptor in human neutrophil membranes
Assay type: cell membranes

Sequence of Leukotriene B4 receptor 1 (Q15722 whole entry): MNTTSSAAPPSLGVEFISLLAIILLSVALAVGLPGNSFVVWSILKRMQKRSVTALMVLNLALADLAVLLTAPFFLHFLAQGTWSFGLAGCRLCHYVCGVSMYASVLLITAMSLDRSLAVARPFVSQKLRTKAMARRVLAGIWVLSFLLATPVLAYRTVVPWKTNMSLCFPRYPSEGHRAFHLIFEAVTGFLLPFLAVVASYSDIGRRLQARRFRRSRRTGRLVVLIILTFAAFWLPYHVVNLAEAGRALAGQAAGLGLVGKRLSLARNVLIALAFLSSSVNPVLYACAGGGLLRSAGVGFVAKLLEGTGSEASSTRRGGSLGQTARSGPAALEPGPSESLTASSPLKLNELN

| Compound | IC50 [nM] |
| --- | --- |
| CN(C)C(=O)CC1(O)CCCC(/C=C/C(O)CCCCc2ccccc2)C1 (stereo not drawn) | 40 |
| O=C(O)CC1(O)CCCC(/C=C/C(O)CCCCc2ccccc2)C1 (stereo not drawn) | 300 |
| CN(C)C(=O)CC1(O)CCCC(/C=C/C(O)CCCCc2ccc(N=[N+]=[N-])c(I)c2)C1 (stereo in doubt) | 6000 |
| CN(C)C(=O)CC1(O)CCCC(/C=C/C(O)CCCCc2ccc(N=[N+]=[N-])cc2)C1 (stereo in doubt; 4b) | 2000 |

Now from value to compound:

| IC50 [nM] | Compound |
| --- | --- |
| 2000 | [N-]=[N+]=Nc1ccc(CCCCC(O)/C=C/C2CCCC(O)(CC(=O)O)C2)cc1 (stereo not drawn) |
| > 10000 | [N-]=[N+]=Nc1ccc(CCCCC(O)/C=C/C2CCCC(O)(CC(=O)O)C2)cc1I (stereo not drawn) |
| 700 | CN(C)C(=O)CC1(O)CCCC(/C=C/C(O)CCCCc2ccc(N=[N+]=[N-])cc2)C1 (stereo in doubt) |
| > 10000 | CN(C)C(=O)CC1(O)CCCC(/C=C/C(O)CCCCc2ccc(N=[N+]=[N-])c(I)c2)C1 (stereo in doubt; 6b) |
